# From patent US9040563B2, “Dual inhibitors of farnesyltransferase and geranylgeranyltransferase I” (H. Lee Moffitt Cancer Center and Research Institute, Inc., priority 2010, dated 2015)
# “And” between values parts separate entries of the source, which are not always exact repeats. Equal values may be shown once.
# How the values were obtained:
# [1] = test system: Rap-1A geranylgeranylation; test: Western blot of Rap-1A geranylgeranylation/processing (antibody to un-geranylgeranylated Rap-1A) in treated cells; type: cell-based
# Description: The ability of FGTI-2734 to inhibit HDJ-2 farnesylation and Rap-1A geranylgeranylation in human cancer cells was determined next. To this end, the MiaPaca pancreatic cancer cell line and 2 breast cancer cell lines (MDA-MB-468 and MDA-MB-231) were treated with various concentration of the dual inhibitor FGTI-2734, the GGT-1 inhibitor GGTI-2418 or the FT inhibitor FTI-2153 and processed for Western blotting.
# Testing has shown that the dual farnesyltransferase and geranygeranyltransferase-I inhibitors are effective on pancreatic tumors (90% of all cases), colonic tumors (30% of all cases), lung tumors (30% of all cases), and breast tumors (10% of all cases). NIH-3T3 cells that overexpress oncogenic mutant K-Ras, seen in FIG. 14, and MDA-MB-231 breast cancer cells with a naturally occurring K-Ras mutation, seen in FIG. 15, were treated with indicated concentrations of FGTI-2734, GGTI-2417 or FTI-2153. FGTI-2734 but not FTI-2153 or GGTI-2417 inhibited K-Ras prenylation. As expected, GGTI-2417 inhibited the processing of Rap1 but not HDJ-2 whereas FTI-2153 inhibited the processing of HDJ-2 but not Rap1.
# Mammalian target of rapamycin (mTOR) is a serine/threonine phosphatidylinositol 3-kinase-related kinase responsible for cell growth, proliferation, cell survival, protein synthesis, and transcription. Alteration of the mTOR pathway, either through activation of oncogenes or inactivation of tumor suppressors, disrupts a signaling equilibrium and causes malignant transformation. Studies have shown that phosphorylated S6 (pS6) is related to mTOR pathway alterations, and is useful in determining PI3K-based cancer therapies (Aziz, et al. Phosphatidylinositol-3-Kinase as a Therapeutic Target in Melanoma. Clin Cancer Res. 2009, 15; 3029-3036). Two breast adenocarcinoma and a pancreatic carcinoma cell line were treated with indicated concentrations of FGTI-2734, GGTI-2417 or FTI-2153. Protein extracts were run on a Western Blot using antibody against pS6 (ser240/244) (Cell Signaling Technology, Inc., Danvers, Mass.). […]
# MiaPaca = test: MTT proliferation/viability assay; type: cell-based, human
# Description: (§1) To determine if FGTI-2734 is more efficacious than FT or GGT-1 inhibitors, 10 human cancer pancreatic cell lines, 2 human breast cancer cell lines, 2 human lung cancer cell lines and one human prostate cancer cell line were treated with these inhibitors and determined their effects on the proliferation of these cells by MTT assay.
# Capan-2 = test: MTT proliferation/viability assay; type: cell-based, human
# Description: as §1
# HPNE-K-ras = test: MTT proliferation/viability assay; type: cell-based, human; conditions: pancreas
# Description: as §1
# ASPC-1 = test: MTT proliferation/viability assay; type: cell-based, human
# Description: as §1
# HPDE-C7 = test: MTT proliferation/viability assay; type: cell-based, human; conditions: HPDE-C7, pancreas
# Description: as §1
# HPDE-C7-Kras = test: MTT proliferation/viability assay; type: cell-based, human; conditions: pancreas
# Description: as §1
# MCF-7 = test: MTT proliferation/viability assay; type: cell-based, human
# Description: as §1
# A549 = test: MTT proliferation/viability assay; type: cell-based, human; conditions: A549, lung
# Description: as §1
# Panc-1 = test: MTT proliferation/viability assay; type: cell-based, human; conditions: Panc-1, pancreas
# Description: as §1
# HPNE = test: MTT proliferation/viability assay; type: cell-based, human; conditions: pancreas
# Description: as §1
# BxPC3 = test: MTT proliferation/viability assay; type: cell-based, human
# Description: as §1
# SW1990 = test: MTT proliferation/viability assay; type: cell-based, human
# Description: as §1
# DU-145 = test: MTT proliferation/viability assay; type: cell-based, human
# Description: as §1
# NCI-H460 = test: MTT proliferation/viability assay; type: cell-based; conditions: Homo sapiens, NCI-H460, lung
# Description: as §1
smiles,measurement,setting,value
"COC(=O)[C@H](CC(C)C)NC(=O)N1CCN(Cc2nc[nH]c2C)C(=O)[C@@H]1Cc1ccccc1 [GGTI-2417, reference compound]",inhibition of Rap1 processing,"[1]; NIH-3T3 overexpressing mutant K-Ras and MDA-MB-231, FIGS. 14, 15",inhibited
CSCC[C@H](NC(=O)c1ccc(CNCc2cnc[nH]2)cc1-c1ccccc1C)C(=O)O [FTI-2148],IC50,MiaPaca; pancreas,1.2 µM
same,IC50,"Capan-2; Capan-2, pancreas",> 100 µM
same,IC50,HPNE-K-ras,> 100 µM
same,IC50,"ASPC-1; ASPC-1, pancreas",> 100 µM
same,IC50,HPDE-C7,> 100 µM
same,IC50,HPDE-C7-Kras,> 100 µM
same,IC50,"MCF-7; MCF-7, breast",> 100 µM and 50 µM
same,IC50,A549,> 100 µM
same,IC50,Panc-1,> 100 µM
same,IC50,HPNE,> 100 µM
same,IC50,"BxPC3; BxPC3, pancreas",> 100 µM
same,IC50,"SW1990; SW1990, pancreas",> 100 µM
Cc1nc[nH]c1CN1CCN(C(=O)N[C@@H](CC(C)C)C(=O)O)[C@@H](Cc2ccccc2)C1=O [GGTI-2418],IC50,"DU-145; DU-145, prostate",> 50 µM
same,IC50,"DU-145; Homo sapiens, DU-145, DU-145, prostate",> 100 µM
same,IC50,"MiaPaca; Homo sapiens, MIA PaCa-2, pancreas",> 100 µM
same,IC50,"Capan-2; Homo sapiens, Capan-2, Capan-2, pancreas",> 100 µM
same,IC50,HPNE-K-ras; Homo sapiens,> 100 µM
same,IC50,"ASPC-1; Homo sapiens, ASPC1, ASPC-1, pancreas",> 100 µM
same,IC50,HPDE-C7; Homo sapiens,> 100 µM
same,IC50,HPDE-C7-Kras; Homo sapiens,> 100 µM
same,IC50,"MCF-7; Homo sapiens, MCF7, MCF-7, breast",> 100 µM
same,IC50,A549; Homo sapiens,> 100 µM
same,IC50,Panc-1; Homo sapiens,> 100 µM
same,IC50,HPNE; Homo sapiens,> 100 µM
same,IC50,"BxPC3; Homo sapiens, BXPC-3, BxPC3, pancreas",> 100 µM
same,IC50,"SW1990; Homo sapiens, SW1990, SW1990, pancreas",> 100 µM
same,IC50,NCI-H460,> 100 µM
same,inhibition of Rap-1A geranylgeranylation,"[1]; MiaPaca, MDA-MB-468 and MDA-MB-231 human cancer cells, FIG. 13",inhibited selectively
